The values that follow come from patent US7557110B2, “Pyrazolo[1,5-A] pyrimidine derivatives” (Teijin Pharma Limited, priority 2003, dated 2009).

Where two headings read alike, the source gives them in different places.

One experiment deals with MAPKAP-K2 (Homo sapiens, UniProt P49137). As to the kind of experiment: MAPKAP-K2 enzyme activity inhibition (33P-ATP filter plate kinase assay). Further: key: +: active; ++: more active; +++: very active. It is filed as biochemical. To be noted: MAPKAP-K2 inhibitory activity; assays conducted at typically 1-100 μM. As for the experimental part:
[General Procedure for Measurement of MAPKAP-K2 Enzyme Activity Inhibition]
After conducting the reaction for 30 minutes at room temperature, an equivalent volume of a 200 mM phosphoric acid solution was added to suspend the reaction, and 90 μL of the reaction product was adsorbed onto a MultiScreen PH plate (Millipore) and rinsed with a 100 mM phosphoric acid solution. After drying the plate, 30 μL of MicroScint-O (Packard BioScience) was added, and the cpm was measured with a scintillation counter to determine the inhibiting activity. Substrate peptide is […]

For the next experiment, the target named is CDK-2 (Homo sapiens, UniProt P24941). As to the kind of experiment: CDK-2 enzyme activity inhibition (33P-ATP filter plate kinase assay). The class given is biochemical. The text has this:
[General Procedure for Measurement of CDK-2 Enzyme Activity Inhibition]

[1] abbreviates: read-out: CDK-2 inhibition IC50.

Chain of MAPKAP-K2 (P49137 whole entry): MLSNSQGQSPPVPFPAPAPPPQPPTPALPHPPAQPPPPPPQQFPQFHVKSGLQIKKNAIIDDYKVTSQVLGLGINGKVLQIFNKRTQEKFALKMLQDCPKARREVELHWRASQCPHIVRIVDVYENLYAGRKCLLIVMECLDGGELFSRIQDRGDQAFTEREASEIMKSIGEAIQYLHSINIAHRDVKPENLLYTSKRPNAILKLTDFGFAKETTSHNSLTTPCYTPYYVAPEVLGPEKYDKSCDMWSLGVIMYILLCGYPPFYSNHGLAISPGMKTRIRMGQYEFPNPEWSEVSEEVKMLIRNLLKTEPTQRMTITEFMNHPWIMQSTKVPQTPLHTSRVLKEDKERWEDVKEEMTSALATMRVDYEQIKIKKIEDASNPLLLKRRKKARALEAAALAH

For the compound `N[C@H]1CC[C@H](Nc2cc(Nc3ccccc3Cl)n3ncc(I)c3n2)CC1` [Compound 47], the “activity (efficacy against MAPKAP-K2)” value at MAPKAP-K2 is “++”. Further, on CDK-2 (setting [1]), the IC50 was less than 100 µM.

On to `Cc1c(N[C@H]2CC[C@H](N)CC2)nc2ccnn2c1Nc1ccc(-c2ccncc2)cc1` [Compound 299], for which, on MAPKAP-K2, the “activity (efficacy against MAPKAP-K2)” value is listed as “+++”. Moreover, the IC50 on CDK-2 (setting [1]) is less than 100 µM.

In the case of `Cc1c(N[C@H]2CC[C@H](N)CC2)nc2ccnn2c1Nc1ccc(C(=O)NCc2ccco2)cc1` [Compound 511], at MAPKAP-K2, the “activity (efficacy against MAPKAP-K2)” value is on record as “+++”. For the same compound, the IC50 at CDK-2 (setting [1]) was less than 100 µM.

Consider `Cc1c(NC2CCCNC2)nc2ccnn2c1Nc1ccc(F)c(Cl)c1` (centres unmarked) [Compound 191], for which the “activity (efficacy against MAPKAP-K2)” value at MAPKAP-K2 was “+++”. Moreover, the IC50 at CDK-2 is less than 100 µM.

Turning to `Cc1c(N[C@H]2CC[C@H](N)CC2)nc2c(C(=O)C(F)(F)F)cnn2c1Nc1ccc(I)cc1` [Compound 417, 1-{5-[(trans-4-aminocyclohexyl)amino]-7-[(4-iodophenyl)amino]-6-methyl(pyrazolo[1,5-a]pyrimidin-3-yl)}-2,2,2-trifluoroethan-1-one], the “activity (efficacy against MAPKAP-K2)” value at MAPKAP-K2 is “+”. Besides, at CDK-2 (setting [1]), the IC50 was less than 100 µM.

For the compound `CCOc1ccc(Nc2c(C(C)C)c(N[C@H]3CC[C@H](N)CC3)nc3ccnn23)cc1` [Compound 114], the “activity (efficacy against MAPKAP-K2)” value at MAPKAP-K2 is reported as “+++”. The IC50 at CDK-2 (setting [1]) is less than 100 µM.

With `Cc1c(N[C@H]2CC[C@H](N)CC2)nc2ccnn2c1Nc1ccc(-c2cc3ccccc3o2)cc1` [Compound 290], on MAPKAP-K2, the “activity (efficacy against MAPKAP-K2)” value is recorded as “+++”. Also, the IC50 on CDK-2 (setting [1]) is less than 100 µM.

With `Cc1c(N[C@H]2CC[C@H](N)CC2)nc2ccnn2c1Nc1ccc(OCc2ccccn2)cc1` [Compound 224], the “activity (efficacy against MAPKAP-K2)” value at MAPKAP-K2 is recorded as “+++”. For the same compound, the half-inhibitory concentration (IC50) on CDK-2 (setting [1]) is less than 100 µM.

For the compound `Cc1c(N[C@H]2CC[C@H](N)CC2)nc2ccnn2c1Nc1ccc(OCCc2ccccn2)cc1` [Compound 225], on MAPKAP-K2, the “activity (efficacy against MAPKAP-K2)” value is on record as “+++”. Also, at CDK-2 (setting [1]), the IC50 was less than 100 µM.

With `CCCCC(=O)c1cnn2c(Nc3ccc(OCC)cc3)c(C)c(N[C@H]3CC[C@H](N)CC3)nc12` [Compound 362], the “activity (efficacy against MAPKAP-K2)” value on MAPKAP-K2 is “++”. Also, the half-maximal inhibitory concentration (IC50) at CDK-2 (setting [1]) is less than 100 µM.

`CCOc1ccc(Nc2c(C)c(N[C@H]3CC[C@H](N)CC3)nc3c(NS(C)(=O)=O)cnn23)cc1` [Compound 386, {5-[(trans-4-aminocyclohexyl)amino]-7-[(4-ethoxyphenyl)amino]-6-methyl(pyrazolo[1,5-a]pyrimidin-3-yl)}(methylsulfonyl)amine]: the “activity (efficacy against MAPKAP-K2)” value on MAPKAP-K2 was “+”.

Regarding `Cc1c(N[C@H]2CC[C@H](N)CC2)nc2ccnn2c1Nc1ccc(OCC2CCCCC2)cc1` [Compound 237], the “activity (efficacy against MAPKAP-K2)” value on MAPKAP-K2 is recorded as “++”. For the same compound, the IC50 on CDK-2 (setting [1]) was less than 100 µM.

Regarding `COc1ccc(Nc2c(C)c(N[C@H]3CC[C@H](N)CC3)nc3ccnn23)cc1` [Compound 203], on MAPKAP-K2, the “activity (efficacy against MAPKAP-K2)” value is listed as “+++”. For the same compound, on CDK-2 (setting [1]), the IC50 was less than 100 µM.

As for `Cc1cccc(-c2ccc(Nc3c(C)c(N[C@H]4CC[C@H](N)CC4)nc4ccnn34)cc2)c1` [Compound 320], the “activity (efficacy against MAPKAP-K2)” value on MAPKAP-K2 was “+++”. The IC50 on CDK-2 (setting [1]) is less than 100 µM.

As to `Cc1c(N[C@H]2CC[C@H](N)CC2)nc2ccnn2c1Nc1ccc(-c2cn[nH]c2)cc1` [Compound 422], the “activity (efficacy against MAPKAP-K2)” value at MAPKAP-K2 is recorded as “+++”. In addition, the IC50 on CDK-2 (setting [1]) is less than 100 µM.

In the case of `CCCC1CCNCC1Nc1nc2ccnn2c(Nc2ccc(OCC)cc2)c1C` (racemic) [Compound 814, 7-N-(4-Ethoxy-phenyl)-6-methyl-5-N-(4-propyl-piperidin-3-yl)-pyrazolo[1,5-a]pyrimidine-5,7-diamine], the “activity (efficacy against MAPKAP-K2)” value on MAPKAP-K2 was “++”.

For the compound `Cc1c(N[C@H]2CC[C@H](N)CC2)nc2ccnn2c1Nc1ccc(OCc2cccnc2)cc1` [Compound 222], the “activity (efficacy against MAPKAP-K2)” value at MAPKAP-K2 is reported as “+++”. At CDK-2 (setting [1]), the IC50 is less than 100 µM.

For the compound `Cc1c(N[C@H]2CC[C@H](N)CC2)nc2ccnn2c1Nc1ccc(O)cc1` [Compound 196], the “activity (efficacy against MAPKAP-K2)” value on MAPKAP-K2 is reported as “+++”. Besides, on CDK-2 (setting [1]), the half-maximal inhibitory concentration (IC50) is less than 100 µM.

Regarding `Cc1c(N[C@H]2CC[C@H](N)CC2)nc2ccnn2c1Nc1ccc(OC2CCCCC2)cc1` [Compound 202], on MAPKAP-K2, the “activity (efficacy against MAPKAP-K2)” value is listed as “+++”. For the same compound, the IC50 on CDK-2 (setting [1]) is less than 100 µM.

For the compound `Cc1c(N[C@H]2CC[C@H](N)CC2)nc2ccnn2c1Nc1ccc(-c2ccc(Cl)cc2)cc1` [Compound 312], the “activity (efficacy against MAPKAP-K2)” value on MAPKAP-K2 is reported as “+++”. In addition, the IC50 at CDK-2 (setting [1]) was less than 100 µM.

On to `Cc1c(N[C@H]2CC[C@H](N)CC2)nc2ccnn2c1Nc1ccc(-c2ccc(N)cc2)cc1` [Compound 301], for which the “activity (efficacy against MAPKAP-K2)” value at MAPKAP-K2 was “+++”. In addition, on CDK-2 (setting [1]), the IC50 was less than 100 µM.

For the compound `Cc1c(NC2CCCNC2)nc2ccnn2c1Nc1ccc(F)c(Cl)c1` (centres unmarked) [Compound 152], the “activity (efficacy against MAPKAP-K2)” value on MAPKAP-K2 is listed as “++”.

Take `CC(=O)c1ccc(-c2ccc(Nc3c(C)c(N[C@H]4CC[C@H](N)CC4)nc4ccnn34)cc2)s1` [Compound 355]: the “activity (efficacy against MAPKAP-K2)” value at MAPKAP-K2 was “+++”. The IC50 at CDK-2 (setting [1]) is less than 100 µM.

Regarding `Cc1c(N[C@H]2CC[C@H](N)CC2)nc2ccnn2c1Nc1ccc(-c2ccsc2C=O)cc1` [Compound 310], the “activity (efficacy against MAPKAP-K2)” value on MAPKAP-K2 was “++”. The IC50 on CDK-2 (setting [1]) is less than 100 µM.

On to `COc1cccc(Nc2c(C)c(N[C@H]3CC[C@H](N)CC3)nc3ccnn23)c1` [Compound 91], for which, on MAPKAP-K2, the “activity (efficacy against MAPKAP-K2)” value is “++”. In addition, the IC50 on CDK-2 (setting [1]) was less than 100 µM.

In the case of `Cc1c(N[C@H]2CC[C@H](N)CC2)nc2ccnn2c1Nc1ccc(-c2cncnc2)cc1` [Compound 311], at MAPKAP-K2, the “activity (efficacy against MAPKAP-K2)” value is given as “+++”. The IC50 at CDK-2 (setting [1]) is less than 100 µM.

With `CCc1c(NC2CCCNC2)nc2ccnn2c1Nc1ccc(Br)cc1` (centres unmarked) [Compound 160], the “activity (efficacy against MAPKAP-K2)” value at MAPKAP-K2 was “++”. On CDK-2 (setting [1]), the IC50 is less than 100 µM.

As to `Cc1csc(-c2ccc(Nc3c(C)c(N[C@H]4CC[C@H](N)CC4)nc4ccnn34)cc2)c1` [Compound 357], the “activity (efficacy against MAPKAP-K2)” value at MAPKAP-K2 is “+++”. Further, the IC50 at CDK-2 (setting [1]) was less than 100 µM.

As for `CCOc1ccc(Nc2c(C)c(N[C@H]3CC[C@H](N)CC3)nc3c(NCc4ccccc4)cnn23)cc1` [Compound 436, {5-[(trans-4-aminocyclohexyl)amino]-6-methyl-[3-benzylamino](pyrazolo[1,5-a]pyrimidin-7-yl)}(4-ethoxyphenyl)amine], the “activity (efficacy against MAPKAP-K2)” value at MAPKAP-K2 is “+”.

With `CCOc1ccc(Nc2cc(N[C@H]3CC[C@H](N)CC3)nc3c(C#N)cnn23)cc1` [Compound 64], the “activity (efficacy against MAPKAP-K2)” value at MAPKAP-K2 was “+++”. Also, the IC50 at CDK-2 (setting [1]) was less than 100 µM.

With `Cc1c(N[C@H]2CC[C@H](N)CC2)nc2ccnn2c1Nc1ccc(-c2csc3ccccc23)cc1` [Compound 292], at MAPKAP-K2, the “activity (efficacy against MAPKAP-K2)” value is reported as “++”. Also, the IC50 at CDK-2 (setting [1]) is less than 100 µM.

With `CCOc1ccc(Nc2c(C)c(N[C@H]3CC[C@H](N)CC3)nc3c(C(=O)Nc4ccccn4)cnn23)cc1` [Compound 359], the “activity (efficacy against MAPKAP-K2)” value at MAPKAP-K2 is listed as “++”. Further, the concentration for half-maximal inhibition (IC50) at CDK-2 (setting [1]) is less than 100 µM.

With `CCOc1ccc(Nc2c(C)c(NC3CCCCNC3)nc3ccnn23)cc1` (centres unmarked) [Compound 272, [5-(azaperhydroepin-3-ylamino)-6-methyl(pyrazolo[1,5-a]pyrimidin-7-yl)](4-ethoxyphenyl)amine], at MAPKAP-K2, the “activity (efficacy against MAPKAP-K2)” value is “++”.

Regarding `CCOc1ccc(Nc2c(C)c(NC3(CO)CCCC3)nc3ccnn23)cc1` [Compound 368], on CDK-2 (setting [1]), the IC50 is less than 100 µM.

For `CCOc1ccc(Nc2c(C)c(N[C@H]3CC[C@H](N)CC3)nc3c(OC)cnn23)cc1` [Compound 425], the IC50 on CDK-2 (setting [1]) is less than 100 µM.

As for `CCOc1ccc(Nc2c(C)c(N[C@H]3CC[C@H](N)CC3)nc3c(NC(C)=O)cnn23)cc1` [Compound 378, N-{5-[(trans-4-aminocyclohexyl)amino]-7-[(4-ethoxyphenyl)amino]-6-methyl(pyrazolo[1,5-a]pyrimidin-3-yl)}acetamide], on MAPKAP-K2, the “activity (efficacy against MAPKAP-K2)” value is reported as “+”.

On to `Cc1c(N[C@H]2CC[C@H](N)CC2)nc2ccnn2c1Nc1ccc(C#Cc2ccccc2)cc1` [Compound 375, {5-[(trans-4-aminocyclohexyl)amino]-6-methyl(pyrazolo[1,5-a]pyrimidin-7-yl)}[4-(2-phenylethynyl)phenyl]amine], for which the “activity (efficacy against MAPKAP-K2)” value on MAPKAP-K2 is given as “+++”.

Take `Cc1c(N[C@H]2CC[C@H](N)CC2)nc2ccnn2c1Nc1ccc(C(=O)N2CCCC2)cc1` [Compound 792, 4-({5-[(trans-4-aminocyclohexyl)amino]-6-methyl(pyrazolo[1,5-a]pyrimidin-7-yl)}amino)phenyl pyrrolidinyl ketone]: the “activity (efficacy against MAPKAP-K2)” value on MAPKAP-K2 is recorded as “+++”.

Take `Cc1c(N[C@H]2CC[C@H](N)CC2)nc2ccnn2c1Nc1cccc(OCCN2CCNCC2)c1` [Compound 259, {5-[(trans-4-aminocyclohexyl)amino]-6-methyl(pyrazolo[1,5-a]pyrimidin-7-yl)}[3-(2-piperazinylethoxy)phenyl]amine]: at MAPKAP-K2, the “activity (efficacy against MAPKAP-K2)” value was “++”.

As to `CCOc1ccc(Nc2c(C)c(NC(C)(C)CO)nc3ccnn23)cc1` [Compound 371], on CDK-2 (setting [1]), the IC50 was less than 100 µM.

In the case of `Cc1c(N[C@H]2CC[C@H](N)CC2)nc2ccnn2c1Nc1cccc(-c2cccnc2)c1` [Compound 450, {5-[(trans-4-aminocyclohexyl)amino]-6-methyl(pyrazolo[1,5-a]pyrimidin-7-yl)}(3-(3-pyridyl)phenyl)amine], the “activity (efficacy against MAPKAP-K2)” value on MAPKAP-K2 is listed as “+++”.

With `CCOc1ccc(Nc2c(C)c(NC(CO)C(C)C)nc3ccnn23)cc1` (centres unmarked) [Compound 366], the IC50 on CDK-2 (setting [1]) was less than 100 µM.

For the compound `CCOc1ccc(Nc2c(C)c(N[C@H]3CC[C@H](N)CC3)nc3c(NC(=O)Nc4ccccc4)cnn23)cc1` [Compound 389, N-{5-[(trans-4-aminocyclohexyl)amino]-7-[(4-ethoxyphenyl)amino]-6-methyl(pyrazolo[1,5-a]pyrimidin-3-yl)}(phenylamino)carboxamide], the “activity (efficacy against MAPKAP-K2)” value on MAPKAP-K2 is given as “++”.
